# Measured values as given in ChEMBL document CHEMBL1177848, “Synthesis of novel 6,6a,7,8-tetrahydro-5H-naphtho[1,2-e]pyrimido[4,5-b][1,4]diazepines under microwave irradiation as potential anti-tumor agents” (2010).
# The source made the active and inactive calls. The calls are words filed in the database; no cut-off is given here.
# What was measured:
# SR = assay: Growth inhibition of human SR cells after 48 hrs by sulforhodamine B assay; format: functional
# EKVX = assay: Growth inhibition of human EKVX cells after 48 hrs by sulforhodamine B assay; format: functional
# HOP-92 = assay: Growth inhibition of human HOP92 cells after 48 hrs by sulforhodamine B assay; format: functional; details: HOP-92, 48 h
# NCI-H226 [1] = assay: Growth inhibition of human NCI-H226 cells after 48 hrs by sulforhodamine B assay; format: functional; details: NCI-H226, 48 h
# HT-29 = assay: Growth inhibition of human HT-29 cells after 48 hrs by sulforhodamine B assay; format: functional; details: HT-29, 48 h
# KM12 = assay: Growth inhibition of human KM12 cells after 48 hrs by sulforhodamine B assay; format: functional; details: KM12, 48 h
# U-251 [2] = assay: Growth inhibition of human U251 cells after 48 hrs by sulforhodamine B assay; format: functional; details: U-251, 48 h
# Malme-3M = assay: Growth inhibition of human MALME-3M cells after 48 hrs by sulforhodamine B assay; format: functional
# MDA-MB-435 = assay: Growth inhibition of human MDA-MB-435 cells after 48 hrs by sulforhodamine B assay; format: functional; details: MDA-MB-435, 48 h
# A498 [3] = assay: Growth inhibition of human A498 cells after 48 hrs by sulforhodamine B assay; format: functional; details: A498, 48 h
# CAKI-1 [4] = assay: Growth inhibition of human Caki1 cells after 48 hrs by sulforhodamine B assay; format: functional; details: CAKI-1, 48 h
# RXF 393 = assay: Growth inhibition of human RXF393 cells after 48 hrs by sulforhodamine B assay; format: functional; details: RXF 393, 48 h
# UO-31 [5] = assay: Growth inhibition of human UO31 cells after 48 hrs by sulforhodamine B assay; format: functional; details: UO-31, 48 h
# PC-3 [6] = assay: Growth inhibition of human PC3 cells after 48 hrs by sulforhodamine B assay; format: functional; details: PC-3, 48 h
# MCF7 [7] = assay: Growth inhibition of human MCF7 cells after 48 hrs by sulforhodamine B assay; format: functional; details: MCF7, 48 h
# MDA-MB-231 [8] = assay: Growth inhibition of human MDA-MB-231 cells after 48 hrs by sulforhodamine B assay; format: functional; details: MDA-MB-231, 48 h
# BT-549 [9] = assay: Growth inhibition of human BT549 cells after 48 hrs by sulforhodamine B assay; format: functional; details: BT-549, 48 h
# T47D [10] = assay: Growth inhibition of human T47D cells after 48 hrs by sulforhodamine B assay; format: functional
# HL-60 = assay: Growth inhibition of human HL-60(TB) cells at 1 uM after 48 hrs by sulforhodamine B assay; format: functional, cell-based
# MOLT-4 = assay: Growth inhibition of human MOLT4 cells at 1 uM after 48 hrs by sulforhodamine B assay; format: functional, cell-based
# NCI-H226 [11] = assay: Growth inhibition of human NCI-H226 cells at 1 uM after 48 hrs by sulforhodamine B assay; format: functional, cell-based
# NCI-H460 = assay: Growth inhibition of human NCI-H460 cells at 1 uM after 48 hrs by sulforhodamine B assay; format: functional, cell-based
# A549 = assay: Growth inhibition of human A549 cells at 1 uM after 48 hrs by sulforhodamine B assay; format: functional, cell-based
# HCC 2998 = assay: Growth inhibition of human HCC2998 cells at 1 uM after 48 hrs by sulforhodamine B assay; format: functional, cell-based
# SF-295 = assay: Growth inhibition of human SF295 cells at 1 uM after 48 hrs by sulforhodamine B assay; format: functional, cell-based
# U-251 [12] = assay: Growth inhibition of human U251 cells at 1 uM after 48 hrs by sulforhodamine B assay; format: functional, cell-based
# SF-268 = assay: Growth inhibition of human SF268 cells at 1 uM after 48 hrs by sulforhodamine B assay; format: functional, cell-based
# SNB-75 = assay: Growth inhibition of human SNB75 cells at 1 uM after 48 hrs by sulforhodamine B assay; format: functional, cell-based
# LOX IMVI = assay: Growth inhibition of human LOXIMVI cells at 1 uM after 48 hrs by sulforhodamine B assay; format: functional, cell-based
# SK-MEL-5 = assay: Growth inhibition of human SK-MEL-5 cells at 1 uM after 48 hrs by sulforhodamine B assay; format: functional, cell-based
# SK-MEL-2 = assay: Growth inhibition of human SK-MEL-2 cells at 1 uM after 48 hrs by sulforhodamine B assay; format: functional, cell-based
# SK-MEL-28 = assay: Growth inhibition of human SK-MEL-28 cells at 1 uM after 48 hrs by sulforhodamine B assay; format: functional, cell-based
# OVCAR-3 = assay: Growth inhibition of human OVCAR-3 cells at 1 uM after 48 hrs by sulforhodamine B assay; format: functional, cell-based
# OVCAR-4 = assay: Growth inhibition of human OVCAR4 cells at 1 uM after 48 hrs by sulforhodamine B assay; format: functional, cell-based
# NCI/ADR-RES = assay: Growth inhibition of human NCI/ADR-RES cells at 1 uM after 48 hrs by sulforhodamine B assay; format: functional, cell-based
# A498 [13] = assay: Growth inhibition of human A498 cells at 1 uM after 48 hrs by sulforhodamine B assay; format: functional, cell-based
# CAKI-1 [14] = assay: Growth inhibition of human Caki1 cells at 1 uM after 48 hrs by sulforhodamine B assay; format: functional, cell-based
# SN12C = assay: Growth inhibition of human SN12C cells at 1 uM after 48 hrs by sulforhodamine B assay; format: functional, cell-based
# TK-10 = assay: Growth inhibition of human TK10 cells at 1 uM after 48 hrs by sulforhodamine B assay; format: functional, cell-based
# UO-31 [15] = assay: Growth inhibition of human UO31 cells at 1 uM after 48 hrs by sulforhodamine B assay; format: functional, cell-based
# 786-0 = assay: Growth inhibition of human 786-0 cells at 1 uM after 48 hrs by sulforhodamine B assay; format: functional, cell-based
# PC-3 [16] = assay: Growth inhibition of human PC3 cells at 1 uM after 48 hrs by sulforhodamine B assay; format: functional, cell-based
# MCF7 [17] = assay: Growth inhibition of human MCF7 cells at 1 uM after 48 hrs by sulforhodamine B assay; format: functional, cell-based
# MDA-MB-231 [18] = assay: Growth inhibition of human MDA-MB-231 cells at 1 uM after 48 hrs by sulforhodamine B assay; format: functional, cell-based
# BT-549 [19] = assay: Growth inhibition of human BT549 cells at 1 uM after 48 hrs by sulforhodamine B assay; format: functional, cell-based
# T47D [20] = assay: Growth inhibition of human T47D cells at 1 uM after 48 hrs by sulforhodamine B assay; format: functional, cell-based
# MDA-MB-468 = assay: Growth inhibition of human MDA-MB-468 cells at 1 uM after 48 hrs by sulforhodamine B assay; format: functional, cell-based
# [21] = read-out: LC50 (the source's name)
compound,measurement,setting,value
Nc1nc(N)c2c(n1)NC(c1ccc(F)cc1)C1CCc3ccccc3C1=N2 (stereo not given),GI50,SR,1.65 µM
same,LC50,SR,12.5 µM
same,GI50,EKVX,2.83 µM
same,LC50,EKVX,62.6 µM
same,GI50,HOP-92,1.17 µM
same,LC50 (50% lethal concentration),HOP-92,31.5 µM
same,GI50,NCI-H226 [1],5.97 µM
same,LC50,NCI-H226 [1],74.4 µM
same,GI50,HT-29,3.84 µM
same,CC50,HT-29; [21],38.7 µM
same,GI50,KM12,4.93 µM
same,LC50 (concentration killing 50% of cells),KM12,43.1 µM
same,GI50,U-251 [2],4.29 µM
same,LC50,U-251 [2],44.1 µM
same,GI50,Malme-3M,2.52 µM
same,LC50,Malme-3M,68.6 µM
same,GI50,MDA-MB-435,2.84 µM
same,LC50 (concentration killing 50% of cells),MDA-MB-435,35.1 µM
same,GI50,A498 [3],2.87 µM
same,LC50,A498 [3],30.6 µM
same,GI50,CAKI-1 [4],2.72 µM
same,CC50,CAKI-1 [4]; [21],44.6 µM
same,GI50,RXF 393,5.48 µM
same,LC50 (50% lethal concentration),RXF 393,60.4 µM
same,GI50,UO-31 [5],3.34 µM
same,LC50,UO-31 [5],55.3 µM
same,GI50,PC-3 [6],2.03 µM
same,LC50,PC-3 [6],40.3 µM
same,GI50,MCF7 [7],2.67 µM
same,LC50,MCF7 [7],36.3 µM
same,GI50,MDA-MB-231 [8],5.8 µM
same,CC50,MDA-MB-231 [8]; [21],48.5 µM
same,GI50,BT-549 [9],3.89 µM
same,CC50,BT-549 [9]; [21],43.5 µM
same,GI50,T47D [10],3.86 µM
same,CC50,T47D [10]; [21],62.9 µM
same,growth inhibition (GI),HL-60,inactive
same,growth inhibition (GI),MOLT-4,inactive
same,growth inhibition (GI),NCI-H226 [11],inactive
same,growth inhibition (GI),NCI-H460,inactive
same,growth inhibition (GI),A549,inactive
same,growth inhibition (GI),HCC 2998,inactive
same,growth inhibition (GI),SF-295,inactive
same,growth inhibition (GI),U-251 [12],inactive
same,growth inhibition (GI),SF-268,inactive
same,growth inhibition (GI),SNB-75,inactive
same,growth inhibition (GI),LOX IMVI,inactive
same,growth inhibition (GI),SK-MEL-5,inactive
same,growth inhibition (GI),SK-MEL-2,inactive
same,growth inhibition (GI),SK-MEL-28,inactive
same,growth inhibition (GI),OVCAR-3,inactive
same,growth inhibition (GI),OVCAR-4,inactive
same,growth inhibition (GI),NCI/ADR-RES,inactive
same,growth inhibition (GI),A498 [13],inactive
same,growth inhibition (GI),CAKI-1 [14],inactive
same,growth inhibition (GI),SN12C,inactive
same,growth inhibition (GI),TK-10,inactive
same,growth inhibition (GI),UO-31 [15],inactive
same,growth inhibition (GI),786-0,inactive
same,growth inhibition (GI),PC-3 [16],inactive
same,growth inhibition (GI),MCF7 [17],inactive
same,growth inhibition (GI),MDA-MB-231 [18],inactive
same,growth inhibition (GI),BT-549 [19],inactive
same,growth inhibition (GI),T47D [20],inactive
same,growth inhibition (GI),MDA-MB-468,inactive
